Data published in US10975056B2 (GlaxoSmithKline Intellectual Property Development Limited, priority 2016, dated 2021).
“And” between values parts separate entries of the source, which are not always exact repeats. Equal values may be shown once. Read-outs that look alike come from different tables or passages of the source.

How the values were obtained:
[1] = system: erythroid progenitor cells (EPCs); assay: Fetal hemoglobin (HbF) ELISA in day 7 erythroid progenitor cells; format: cell-based, human; settings: HbF ELISA, day 7 EPCs, 5 days; for EC50: Homo sapiens, Erythroid progenitor cell, read-out: EPC ELISA (pEC50 category) (converted);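 for all read-outs here: for fetal hemoglobin induction normalized to vehicle-treated cells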
How it was run: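 CD34+-derived EPCs, 1,000 cells/well, rhEPO 3 U/mL; Compound A 22-pt series, […]; 5 d, 37° C, 5% CO2. Freeze-thaw lysis, anti-HbF capture + HRP anti-HbF, TMB, OD450. Normalized to DMSO wells.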

DNMT1 = DNMT1 (Homo sapiens, UniProt P26358); assay: DNMT1 biochemical activity, breaklight assay and/or SPA assay
Chain of DNMT1 (P26358 whole entry, looked up): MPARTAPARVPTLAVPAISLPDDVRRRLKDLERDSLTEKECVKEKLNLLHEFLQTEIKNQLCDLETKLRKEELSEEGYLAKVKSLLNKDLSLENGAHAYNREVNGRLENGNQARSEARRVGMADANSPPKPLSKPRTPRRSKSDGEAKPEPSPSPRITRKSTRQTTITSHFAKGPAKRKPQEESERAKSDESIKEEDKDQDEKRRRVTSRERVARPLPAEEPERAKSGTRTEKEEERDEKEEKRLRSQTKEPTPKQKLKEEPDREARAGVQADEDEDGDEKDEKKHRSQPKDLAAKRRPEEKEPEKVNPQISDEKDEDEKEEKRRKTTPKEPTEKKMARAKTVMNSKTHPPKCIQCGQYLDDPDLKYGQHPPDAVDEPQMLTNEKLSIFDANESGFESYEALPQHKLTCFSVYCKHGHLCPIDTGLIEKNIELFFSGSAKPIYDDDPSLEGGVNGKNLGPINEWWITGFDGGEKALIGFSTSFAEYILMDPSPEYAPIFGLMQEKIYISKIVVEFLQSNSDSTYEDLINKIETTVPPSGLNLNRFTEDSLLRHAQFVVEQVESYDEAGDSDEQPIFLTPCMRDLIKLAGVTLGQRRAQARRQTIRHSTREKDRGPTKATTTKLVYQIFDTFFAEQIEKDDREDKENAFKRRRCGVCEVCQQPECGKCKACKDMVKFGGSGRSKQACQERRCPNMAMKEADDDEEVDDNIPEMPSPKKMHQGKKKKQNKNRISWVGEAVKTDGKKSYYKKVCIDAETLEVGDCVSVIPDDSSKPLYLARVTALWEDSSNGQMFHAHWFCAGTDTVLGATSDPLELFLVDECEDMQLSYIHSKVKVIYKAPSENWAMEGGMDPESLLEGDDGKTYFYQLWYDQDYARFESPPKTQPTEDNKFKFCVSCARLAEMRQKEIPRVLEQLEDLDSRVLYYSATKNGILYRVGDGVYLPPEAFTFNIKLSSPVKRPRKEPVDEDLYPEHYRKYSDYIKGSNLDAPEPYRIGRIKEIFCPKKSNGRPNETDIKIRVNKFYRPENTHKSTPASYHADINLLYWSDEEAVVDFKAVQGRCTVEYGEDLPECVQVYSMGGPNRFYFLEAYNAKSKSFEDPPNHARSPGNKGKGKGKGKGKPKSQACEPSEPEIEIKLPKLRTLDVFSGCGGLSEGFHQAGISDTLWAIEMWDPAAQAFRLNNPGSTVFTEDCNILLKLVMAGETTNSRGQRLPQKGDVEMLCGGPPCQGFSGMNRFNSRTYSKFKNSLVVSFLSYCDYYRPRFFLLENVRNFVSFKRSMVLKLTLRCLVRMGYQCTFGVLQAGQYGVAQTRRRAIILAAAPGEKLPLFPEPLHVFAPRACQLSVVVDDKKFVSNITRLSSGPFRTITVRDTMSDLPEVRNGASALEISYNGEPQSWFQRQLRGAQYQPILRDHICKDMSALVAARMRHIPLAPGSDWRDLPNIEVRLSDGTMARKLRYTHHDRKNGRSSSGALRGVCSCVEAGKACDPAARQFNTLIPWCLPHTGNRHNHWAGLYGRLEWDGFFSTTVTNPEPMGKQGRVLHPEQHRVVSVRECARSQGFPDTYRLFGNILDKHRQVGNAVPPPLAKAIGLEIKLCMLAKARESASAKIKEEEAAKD

[2] = binned activity in either the breaklight or the SPA assay
[3] = binned activity in either the breaklight or the SPA assay, read-out: DNMT1 BioChemical (pIC50 category) (converted)
[4] = breaklight assay and/or SPA assay, repeated experimental runs, read-out: average pIC50 against DNMT1 (converted)

CCc1c(C#N)c(SCc2ccc(N(C)S(C)(=O)=O)cc2)nc(N(C)CCNCCOC)c1C#N [Example 480]
EC50 [1]: 316 to 1000 nM
DNMT1 BioChemical (pIC50 category) (DNMT1; [2]): D (Category D: ≥6.5)

CCc1c(C#N)c(SCc2ccc(NS(C)(=O)=O)c(F)c2)nc(N2CCCN(C)CC2)c1C#N [Example 361, N-(4-(((3,5-Dicyano-4-ethyl-6-(4-methyl-1,4-diazepan-1-yl)pyridin-2-yl)thio)methyl)-2-fluorophenyl)methanesulfonamide]
EC50 [1]: 1000 to 31600 nM
IC50 (DNMT1; [3]): 316 to 1000 nM

CCc1c(C#N)c(S[C@@H](C(N)=O)c2ccccc2)nc(N2CCC(O)(CN)C2)c1C#N.Cl (stereo in doubt) [Example 423, (R)-2-((6-((R)-3-(aminomethyl)-3-hydroxypyrrolidin-1-yl)-3,5-dicyano-4-ethylpyridin-2-yl)thio)-2-phenylacetamide hydrochloride]
EPC ELISA (pEC50 category) [1]: C (Category C: 6.0 ≤ x < 6.5)
DNMT1 BioChemical (pIC50 category) (DNMT1; [2]): D (Category D: ≥6.5)

CCc1c(C#N)c(SCc2ccc(CNC(=O)OC(C)(C)C)cc2)nc(N2CCCN(C)CC2)c1C#N [Example 69, tert-Butyl 4-(((3,5-dicyano-4-ethyl-6-(4-methyl-1,4-diazepan-1-yl)pyridin-2-yl)thio)methyl)benzylcarbamate]
EC50 [1]: > 31600 nM
IC50 (DNMT1; [3]): 1000 to 31600 nM
IC50 (DNMT1; [4]): ≥ 1000 nM

CCc1c(C#N)c(S[C@@H](C(N)=O)c2ccc(F)cc2)nc(N2CC[C@H](OP(=O)(O)O)C2)c1C#N [Example 426, (S)-1-(6-(((R)-2-amino-1-(4-fluorophenyl)-2-oxoethyl)thio)-3,5-dicyano-4-ethylpyridin-2-yl)pyrrolidin-3-yl dihydrogen phosphate]
EC50 [1]: > 31600 nM
IC50 (DNMT1; [3]): 1000 to 31600 nM

CCc1c(C#N)c(SC(C(N)=O)c2ccccc2)nc(N(C)CC(=O)NC2(CO)COC2)c1C#N (centres unmarked) [Example 675, 2-((6-((2-amino-2-oxo-1-phenylethyl)thio)-3,5-dicyano-4-ethylpyridin-2-yl)(methyl)amino)-N-(3-(hydroxymethyl)oxetan-3-yl)acetamide]
EC50 [1]: 316 to 1000 nM
IC50 (DNMT1; [3]): < 316 nM

CCc1c(C#N)c(SC(C(N)=O)c2ccccc2)nc(N2CC(OP(=O)(O)O)C2)c1C#N (centres unmarked) [Example 152, 1-(6-((2-Amino-2-oxo-1-phenylethyl)thio)-3,5-dicyano-4-ethylpyridin-2-yl)azetidin-3-yl dihydrogen phosphate]
EC50 [1]: 1000 to 31600 nM
IC50 (DNMT1; [3]): 1000 to 31600 nM

CCc1c(C#N)c(SC(C(N)=O)c2ccccc2)nc(N2CCC(N3CC(OC)C3)CC2)c1C#N (centres unmarked) [Example 697, 2-((3,5-dicyano-4-ethyl-6-(4-(3-methoxyazetidin-1-yl)piperidin-1-yl)pyridin-2-yl)thio)-2-phenylacetamide]
EC50 [1]: < 316 nM
DNMT1 BioChemical (pIC50 category) (DNMT1; [2]): D (Category D: ≥6.5)

CCc1c(C#N)c(SC(C(N)=O)c2ccc(F)cc2)nc(N2CCC(NC)CC2)c1C#N (centres unmarked) [Example 526, 2-((3,5-dicyano-4-ethyl-6-(4-(methylamino)piperidin-1-yl)pyridin-2-yl)thio)-2-(4-fluorophenyl)acetamide]
EC50 [1]: < 316 nM
IC50 (DNMT1; [3]): < 316 nM

CCc1c(C#N)c(SC(C(N)=O)c2ccccc2)nc(N2CC[C@@H](NC(=O)OC(C)(C)C)[C@@H](F)C2)c1C#N (single isomer, unassigned) [Example 534, rel-tert-butyl (cis)-1-(6-((2-amino-2-oxo-1-phenylethyl)thio)-3,5-dicyano-4-ethylpyridin-2-yl)-3-fluoropiperidin-4-yl)carbamate]
EC50 [1]: < 316 nM
IC50 (DNMT1; [3]): < 316 nM

CCc1c(C#N)c(SC(C(N)=O)c2ccc(OC)cn2)nc(N(C)C)c1C#N (centres unmarked) [Example 237, 2-((3,5-Dicyano-6-(dimethylamino)-4-ethylpyridin-2-yl)thio)-2-(5-methoxypyridin-2-yl)acetamide]
EC50 [1]: 1000 to 31600 nM
IC50 (DNMT1; [3]): 316 to 1000 nM
IC50 (DNMT1; [4]): 316 to 1000 nM and 398 nM

CCc1c(C#N)c(SC(C(N)=O)c2ccccc2)nc(N2CCC(NCCOC)C(F)C2)c1C#N (centres unmarked) [Example 510, 2((3,5-dicyano-4-ethyl-6-(3-fluoro-4-((2-methoxyethyl)amino)piperidin-1-yl)pyridin-2-yl)thio)-2-phenylacetamide]
EC50 [1]: < 316 nM
DNMT1 BioChemical (pIC50 category) (DNMT1; [2]): D (Category D: ≥6.5)
